Measured values: patent publication US20210009583A1, “DEUTERATED IMIDAZOPYRIDINES” (UNIVERSITY OF NOTRE DAME DU LAC, priority 2018, published 2021)
“And” between values parts separate entries of the source, which are not always exact repeats. Identical values can stand only once. “Also recorded” adds a separate entry of the source. Like-named read-outs stand apart in the source and are kept apart here.

How the values were obtained:
[1] = Single dose pharmacokinetic study after oral administration, with and without ABT pre-dosing; assay type: in vivo, female Balb/c mice
Experimental: Based on MIC and acute toxicity data, two compounds ND-011176 and a deuterated analog ND-012101 were selected for evaluation in a single dose pharmacokinetic study (with and without pre-dosing of 1-Aminobenzotriazole, ABT) after oral administration to female Balb/c mice.
All animals were administered with the prepared test article via oral gavage at a target dose level of 200 mg/kg and at the dose volume detailed in the table 1 below. Each animal in Groups 2, 4, 6, 8 and 10 received a dose of ABT (100 mg/kg) via oral gavage two hours prior to Test Article administration.
Whole blood samples (0.1 mL each) were collected at the first time point via submandibular vein (SMV), or an appropriate peripheral vein if it was necessary. Up to 0.5 mL of whole blood was collected at terminal blood collection via intra cardiac puncture (ICP). For animals 1-3 from each of the 10 Groups, blood samples were collected at 0.5 and 4 hours after oral dosing. […]
The plasma samples and dose formulation samples were analyzed by the Testing Facility to determine the concentration of the test article using LC-MS/MS. PK parameters were estimated from the plasma concentration-time data by standard non-compartmental methods utilizing suitable analysis software.

M. tuberculosis = assay: Chronic Balb/c mouse model of M. tuberculosis infection; assay type: in vivo; settings: for CFU drop (bacteriostatic activity) / Mouse survival: 4 weeks of oral dosing; for Spleen, gross necropsy observation: after 4 weeks of treatment, individual mice; for Lung Log10 CFU ± SEM / Spleen Log10 CFU ± SEM / Log reduction vs CTL (Lg) / Log reduction vs CTL (Sp): 4 Week Treatment; for Log reduction vs CTL (Lg): lung; for Log reduction vs CTL (Sp): spleen
[2] = Body weight at gross necropsy after 4 weeks of treatment (chronic model); assay type: in vivo, Balb/c mouse; settings: individual mice
Experimental: When evaluated in the “Chronic Balb/c mouse model” of M. tuberculosis infection by the method of Lenaerts, A. J., et. al. 2005. Preclinical testing of the nitroimidazopyran PA-824 for activity against M. tuberculosis in a series of in vitro and in vivo models. AAC. 49(6):2294-301. ND-012101 at 200 mg/kg and ND-012101(100 mg/kg)+ABT (100 mg/kg) both achieved 100% mouse survival after 4 weeks of oral dosing.

[3] = 5 h (mean of the "8" and "12" TP samples taken before euthanasia), PO 200 mg/kg + 100 mg/kg ABT
[4] = female, Balb/c, mouse, in vivo, po, 200 mg/kg
[5] = mouse, in vivo, female Balb/c mice, single oral dose 200 mg/kg, no ABT

**Q.** For `[2H]c1c(C([2H])([2H])[2H])c([2H])n2c(C(=O)NCc3ccc(C(F)(F)F)cc3)c(C)nc2c1[2H]` [ND-012101], which “Drug plasma concentration, individual mice” value ([1]; 0.5 h, PO 200 mg/kg + 100 mg/kg ABT) is on record?
**A.** The value was 22700 ng/mL and 19100 ng/mL.

**Q.** What about the “Drug plasma concentration, individual mice” value ([1]; 0.5 h, PO 200 mg/kg, no ABT, 200 mg/kg) of the same compound?
**A.** Its value is 23100 ng/mL and 19900 ng/mL.

**Q.** What about the “Drug plasma concentration, individual mice” value ([1]; 2 h, PO 200 mg/kg + 100 mg/kg ABT) of the same compound?
**A.** Its value is 37700 ng/mL and 35500 ng/mL.

**Q.** What about the “Drug plasma concentration, individual mice” value ([1]; 2 h, PO 200 mg/kg, no ABT, 200 mg/kg) of the same compound?
**A.** Its value is 7900 ng/mL and 3080 ng/mL and 4590 ng/mL.

**Q.** What about the “Drug plasma concentration, individual mice” value ([1]; 4 h, PO 200 mg/kg + 100 mg/kg ABT) of the same compound?
**A.** The value was 47200 ng/mL and 35000 ng/mL.

**Q.** And the “Drug plasma concentration, individual mice” value ([1]; 4 h, PO 200 mg/kg, no ABT, 200 mg/kg)?
**A.** The value was 1350 ng/mL and 3490 ng/mL and 966 ng/mL.

**Q.** What about the “Drug plasma concentration, Average” value [1, 3] of the same compound?
**A.** The value was 50017^^ ng/mL.

**Q.** And the “Drug plasma concentration, individual mice” value [1, 3]?
**A.** Its value is 49100^^ ng/mL and 47600^^ ng/mL and 53350^^ ng/mL.

**Q.** What about the “Drug plasma concentration, individual mice” value ([1]; 8 h, PO 200 mg/kg, no ABT, 200 mg/kg) of the same compound?
**A.** The value was 67.6 ng/mL and 22.3 ng/mL and 100 ng/mL.

**Q.** And the “Drug plasma concentration, individual mice” value ([1]; 12 h, PO 200 mg/kg, no ABT, 200 mg/kg)?
**A.** The value was 2.10 ng/mL and 1.19 ng/mL.

**Q.** And the “Drug plasma concentration, individual mice” value ([1]; 24 h, PO 200 mg/kg, no ABT)?
**A.** Its value is “BQL”.

**Q.** What about the “% AUC Extrap” value ([1]; female Balb/c mice, single oral dose 200 mg/kg, no ABT) of the same compound?
**A.** Its value is 0.00%.

**Q.** What about the concentration at 0.5 h ([1]; female, Balb/c, mouse, in vivo, 0.5 h, PO 200 mg/kg + 100 mg/kg ABT, read-out: Drug plasma concentration, Average) of the same compound?
**A.** The concentration at 0.5 h was 21700 ng/mL.

**Q.** And the concentration at 0.5 h ([1]; female, Balb/c, mouse, in vivo, 0.5 h, PO 200 mg/kg + 100 mg/kg ABT, read-out: Drug plasma concentration, individual mice)?
**A.** Its concentration at 0.5 h is 23300 ng/mL.

**Q.** What about the concentration at 2 h ([1]; female, Balb/c, mouse, in vivo, 2 h, PO 200 mg/kg + 100 mg/kg ABT, read-out: Drug plasma concentration, Average) of the same compound?
**A.** The concentration at 2 h was 34300 ng/mL.

**Q.** What about the concentration at 2 h ([1]; female, Balb/c, mouse, in vivo, 2 h, PO 200 mg/kg + 100 mg/kg ABT, read-out: Drug plasma concentration, individual mice) of the same compound?
**A.** The concentration at 2 h was 29800 ng/mL.

**Q.** And the concentration at 4 h ([1]; female, Balb/c, mouse, in vivo, 4 h, PO 200 mg/kg + 100 mg/kg ABT, read-out: Drug plasma concentration, Average)?
**A.** Its concentration at 4 h is 43500 ng/mL.

**Q.** And the concentration at 4 h ([1]; female, Balb/c, mouse, in vivo, 4 h, PO 200 mg/kg + 100 mg/kg ABT, read-out: Drug plasma concentration, individual mice)?
**A.** Its concentration at 4 h is 48200 ng/mL.

**Q.** And the “AUC(0-x)/Dose” value [1, 4]?
**A.** Its value is 125 ng·h/mL/mg/kg.

**Q.** And the “AUC(0-∞)/Dose” value [1, 4]?
**A.** Its value is 125 ng·h/mL/mg/kg.

**Q.** And the Cmax/Dose [1, 4]?
**A.** The Cmax/Dose was 96 ng/mL/mg/kg.

**Q.** What about the concentration at 0.5 h ([1]; female, Balb/c, mouse, in vivo, po, 200 mg/kg, 0.5 h, PO 200 mg/kg, no ABT, read-out: Drug plasma concentration, Average) of the same compound?
**A.** The concentration at 0.5 h was 19200 ng/mL.

**Q.** What about the concentration at 0.5 h ([1]; female, Balb/c, mouse, in vivo, po, 200 mg/kg, 0.5 h, PO 200 mg/kg, no ABT, read-out: Drug plasma concentration, individual mice) of the same compound?
**A.** Its concentration at 0.5 h is 14700 ng/mL.

**Q.** And the concentration at 2 h ([1]; female, Balb/c, mouse, in vivo, po, 200 mg/kg, 2 h, PO 200 mg/kg, no ABT, read-out: Drug plasma concentration, Average)?
**A.** Its concentration at 2 h is 5190 ng/mL.

**Q.** And the concentration at 4 h ([1]; female, Balb/c, mouse, in vivo, po, 200 mg/kg, 4 h, PO 200 mg/kg, no ABT, read-out: Drug plasma concentration, Average)?
**A.** The concentration at 4 h was 1940 ng/mL.

**Q.** And the concentration at 8 h ([1]; female, Balb/c, mouse, in vivo, po, 200 mg/kg, 8 h, PO 200 mg/kg, no ABT, read-out: Drug plasma concentration, Average)?
**A.** Its concentration at 8 h is 63 ng/mL.

**Q.** And the concentration at 12 h ([1]; female, Balb/c, mouse, in vivo, po, 200 mg/kg, 12 h, PO 200 mg/kg, no ABT, read-out: Drug plasma concentration, Average)?
**A.** Its concentration at 12 h is 2 ng/mL.

**Q.** And the concentration at 12 h ([1]; female, Balb/c, mouse, in vivo, po, 200 mg/kg, 12 h, PO 200 mg/kg, no ABT, read-out: Drug plasma concentration, individual mice)?
**A.** The concentration at 12 h was 2 ng/mL.

**Q.** And the Cmax ([1]; mouse, in vivo, female Balb/c mice, single oral dose 200 mg/kg, ABT 100 mg/kg PO 2 h before, manually added from the TA concentration data)?
**A.** Its Cmax is 48400 ng/mL.

**Q.** What about the AUC(0-inf) [1, 5] of the same compound?
**A.** Its AUC(0-inf) is 25000 ng·h/mL.

**Q.** What about the Cmax [1, 5] of the same compound?
**A.** Its Cmax is 19200 ng/mL.

**Q.** And the Tmax [1, 5]?
**A.** The Tmax was 60 min.

**Q.** What about the half-life [1, 5] of the same compound?
**A.** The half-life was 47.4 min.

**Q.** What about the AUC ([1]; mouse, in vivo, female Balb/c mice, single oral dose 200 mg/kg, no ABT, read-out: AUC(0-x)) of the same compound?
**A.** Its AUC is 25000 ng·h/mL.

**Q.** What about the “CFU drop (bacteriostatic activity)” value (M. tuberculosis; 100 mg/kg + ABT 100 mg/kg) of the same compound?
**A.** The value was under 1 log CFU.

**Q.** What about the Mouse survival (M. tuberculosis; 100 mg/kg + ABT 100 mg/kg) of the same compound?
**A.** Its Mouse survival is 100%.

**Q.** What about the “CFU drop (bacteriostatic activity)” value (M. tuberculosis; 200 mg/kg) of the same compound?
**A.** The value was under 1 log CFU.

**Q.** What about the Mouse survival (M. tuberculosis; 200 mg/kg) of the same compound?
**A.** The Mouse survival was 100%.

**Q.** What about the “Spleen, gross necropsy observation” value (M. tuberculosis; Group 3, ND-012101 + ABT) of the same compound?
**A.** The value was “Slightly enlarged”.

**Q.** And the “Spleen, gross necropsy observation” value (M. tuberculosis; Group 6, ND-012101 alone)?
**A.** Its value is “Slightly enlarged; also recorded: normal”.

**Q.** And the “Lung Log10 CFU ± SEM” value (M. tuberculosis; ND-012101 (100) + ABT (100))?
**A.** Its value is 5.62 ± 0.06 Log10 CFU.

**Q.** What about the “Spleen Log10 CFU ± SEM” value (M. tuberculosis; ND-012101 (100) + ABT (100)) of the same compound?
**A.** Its value is 4.80 ± 0.14 Log10 CFU.

**Q.** What about the “Lung Log10 CFU ± SEM” value (M. tuberculosis; ND-012101 (200)) of the same compound?
**A.** The value was 5.93 ± 0.08 Log10 CFU.

**Q.** What about the “Spleen Log10 CFU ± SEM” value (M. tuberculosis; ND-012101 (200)) of the same compound?
**A.** Its value is 5.02 ± 0.08 Log10 CFU.

**Q.** And the “Log reduction vs CTL (Lg)” value (M. tuberculosis; ND-012101 (100) + ABT (100))?
**A.** The value was 0.17.

**Q.** What about the “Log reduction vs CTL (Lg)” value (M. tuberculosis; ND-012101 (200)) of the same compound?
**A.** Its value is −0.14.

**Q.** And the “Log reduction vs CTL (Sp)” value (M. tuberculosis; ND-012101 (100) + ABT (100))?
**A.** The value was 0.20.

**Q.** What about the “Log reduction vs CTL (Sp)” value (M. tuberculosis; ND-012101 (200)) of the same compound?
**A.** The value was −0.02.

**Q.** What about the Weight ([2]; Group 3, ND-012101 + ABT) of the same compound?
**A.** Its Weight is 20.4 (2×) and 20.8 and 20.0 and 20.5 and 18.6.

**Q.** And the Weight ([2]; Group 6, ND-012101 alone)?
**A.** Its Weight is 21.5 (2×) and 20.7 and 20.3 and 19.9 and 20.8.
